Reference: DBAASP
In brackets after ≈: the same amount, converted by molar mass. Values belong to the molecule of their own block, whether it stands above or below them.

Assays:
Assay in all cases: ≥ marks a high value that may be exact or a test limit, other limits are often not marked, values filed in µg/mL are converted to µM
Candida albicans MDM8 = test system: Candida albicans MDM8
Escherichia coli SBS 363 = test system: Escherichia coli SBS 363
[1] = test system: Enterobacter cloacae beta-12
[2] = test system: Staphylococcus aureus ATCC 29213
Micrococcus luteus A270 = test system: Micrococcus luteus A270
[3] = test system: Staphylococcus epidermidis ATCC 12228
[4] = test system: Candida tropicalis IOC 4560
[5] = test system: Bacillus megaterium ATCC 10778
[6] = test system: Serratia marcescens ATCC 4112
[7] = test system: Staphylococcus aureus ATCC BAA-1683
Escherichia coli = test system: Escherichia coli
[8] = test system: Staphylococcus aureus ATCC 25923
[9] = test system: Staphylococcus aureus SH1000
[10] = test system: Escherichia coli ATCC 25922
[11] = test system: Pseudomonas aeruginosa ATCC 9027
[12] = test system: Candida albicans FRR 5580
[13] = test system: Acinetobacter baumannii ATCC 19606
[14] = test system: Staphylococcus aureus VRSA1
[15] = test system: Klebsiella pneumoniae ATCC BAA-2146
[16] = test system: Staphylococcus aureus NRS 17
[17] = test system: Pseudomonas aeruginosa ATCC 27853
[18] = test system: Staphylococcus aureus NRS 1
[19] = test system: Staphylococcus aureus VRSA10
[20] = test system: Staphylococcus aureus ATCC 43300
[21] = test system: Pseudomonas aeruginosa FADDI-PA070
[22] = test system: Klebsiella pneumoniae ATCC 700603
[23] = test system: Streptococcus pneumoniae ATCC 700677
Escherichia coli K88 = test system: Escherichia coli K88
[24] = test system: Lacticaseibacillus rhamnosus 7469
[25] = test system: Lacticaseibacillus rhamnosus 1.0385
[26] = test system: Lactiplantibacillus plantarum 8014
[27] = test system: Lacticaseibacillus rhamnosus 1.0936
[28] = test system: Salmonella enterica subsp. enterica serovar Typhimurium ATCC 14028
Escherichia coli UB1005 = test system: Escherichia coli UB1005
[29] = test system: Salmonella enterica subsp. enterica serovar Pullorum C79-13
Escherichia coli K99 = test system: Escherichia coli K99
[30] = test system: Lacticaseibacillus rhamnosus 1.0911
[31] = test system: Salmonella enterica subsp. enterica serovar Typhimurium C77-31

MIC (Candida albicans MDM8): ≥ 50 µM
MIC (Escherichia coli SBS 363): ≥ 50 µM
MIC [1]: ≥ 50 µM
MIC [2]: > 50 µM
MIC (Micrococcus luteus A270): ≥ 50 µM
MIC [3]: > 50 µM
MIC [4]: ≥ 50 µM
MIC [5]: ≥ 50 µM
MIC [6]: ≥ 50 µM
Compound: CC(C)C[C@H](NC(=O)[C@H](C)NC(=O)CNC(=O)[C@H](CC(C)C)NC(=O)[C@@H](N)Cc1ccccc1)C(=O)N[C@@H](Cc1c[nH]c2ccccc12)C(=O)N[C@@H](CC(N)=O)C(=O)N[C@H](C(=O)N[C@@H](CCCCN)C(=O)N[C@@H](CCCCN)C(=O)N[C@@H](CO)C(=O)N[C@H](C(=O)N[C@@H](Cc1ccccc1)C(N)=O)C(C)C)C(C)C [FLGALWNVKKSVF]

MIC [7]: ≥ 43.3 µM
MIC (Escherichia coli): 173 µM (≈ 250 µg/mL)
MIC [8]: 21.7 µM (≈ 31.2 µg/mL)
Compound: CC(C)C[C@H](NC(=O)[C@H](CC(C)C)NC(=O)[C@H](CCCCN)NC(=O)[C@H](Cc1c[nH]c2ccccc12)NC(=O)[C@H](Cc1c[nH]c2ccccc12)NC(=O)[C@@H](N)CCCCN)C(=O)N[C@@H](CCCN=C(N)N)C(=O)N[C@@H](CCCCN)C(=O)N[C@@H](CCCCN)C(=O)N[C@@H](CCCN=C(N)N)C(N)=O [KWWKLLRKKR]

MIC [9]: ≥ 100 µM
Compound: CC(C)C[C@H](NC(=O)[C@H](CC(C)C)NC(=O)[C@H](CCCCN)NC(=O)[C@H](CC(C)C)NC(=O)[C@H](CC(C)C)NC(=O)[C@H](CCCCN)NC(=O)[C@H](CCCCN)NC(=O)[C@H](CC(C)C)NC(=O)[C@H](CC(C)C)NC(=O)[C@H](CCCCN)NC(=O)[C@H](CC(C)C)NC(=O)[C@H](CC(C)C)NC(=O)[C@@H](N)CCCCN)C(=O)NCC(N)=O [KLLKLLKKLLKLLG]

MIC [10]: 65.2 µM (≈ 250 µg/mL)
MIC [11]: > 65.2 µM
MIC [12]: ≥ 32.6 µM
MIC [8]: 65.2 µM (≈ 250 µg/mL)
Compound: CC(C)[C@H](NC(=O)[C@@H]1CCCN1C(=O)[C@H](Cc1ccccc1)NC(=O)[C@H](CCCCN)NC(=O)CNC(=O)[C@H](CCCCN)NC(=O)[C@H](Cc1c[nH]c2ccccc12)NC(=O)[C@H](Cc1c[nH]c2ccccc12)NC(=O)[C@H](CCCCN)NC(=O)[C@H](Cc1c[nH]c2ccccc12)NC(=O)[C@H](Cc1c[nH]c2ccccc12)NC(=O)[C@H](CCCN=C(N)N)NC(=O)[C@H](Cc1c[nH]c2ccccc12)NC(=O)[C@@H](NC(=O)[C@@H](NC(=O)[C@@H]1CCCN1C(=O)[C@@H](N)Cc1ccccc1)C(C)C)[C@@H](C)O)C(=O)N[C@H](C(=O)N[C@@H](Cc1c[nH]c2ccccc12)C(=O)N[C@@H](CCCN=C(N)N)C(=O)N[C@@H](Cc1c[nH]c2ccccc12)C(=O)N[C@@H](Cc1c[nH]c2ccccc12)C(=O)N[C@@H](CCCCN)C(=O)N[C@@H](Cc1c[nH]c2ccccc12)C(=O)N[C@@H](Cc1c[nH]c2ccccc12)C(=O)N[C@@H](CCCCN)C(=O)NCC(=O)O)[C@@H](C)O [FPVTWRWWKWWKGKFPVTWRWWKWWKG]

MIC [13]: > 9.6 µM
MIC [14]: 9.6 µM (≈ 23.6 µg/mL)
MIC [15]: 9.6 µM (≈ 23.6 µg/mL)
MIC [16]: 9.6 µM (≈ 23.6 µg/mL)
MIC [17]: > 9.6 µM
MIC [10]: > 9.6 µM
MIC [18]: 9.6 µM (≈ 23.6 µg/mL)
MIC [19]: 9.6 µM (≈ 23.6 µg/mL)
MIC [20]: > 9.6 µM
MIC [21]: 9.6 µM (≈ 23.6 µg/mL)
MIC [22]: > 9.6 µM
MIC [23]: 9.6 µM (≈ 23.6 µg/mL)
Compound: CC[C@H](C)[C@H](NC(=O)[C@@H](N)CC(C)C)C(=O)NCC(=O)N[C@@H](CC(C)C)C(=O)N[C@H](C(=O)N[C@@H](CO)C(=O)N[C@@H](CCCCN)C(=O)NCC(=O)N[C@H](C(=O)N[C@H]1CSSC[C@@H](C(=O)N[C@@H](CCCCN)C(=O)N[C@@H](CCCCN)C(=O)N[C@H](C(=O)N[C@@H](CC(C)C)C(=O)N[C@@H](CCCCN)C(=O)N[C@@H](CCC(N)=O)C(N)=O)C(C)C)NC(=O)[C@H](C(C)C)NC(=O)[C@H]([C@@H](C)O)NC(=O)[C@H](CCCCN)NC(=O)[C@H](C(C)C)NC(=O)[C@H](CC(C)C)NC(=O)[C@H](C(C)C)NC1=O)[C@@H](C)O)C(C)C [LIGLVSKGTCVLVKTVCKKVLKQ]

MIC (Escherichia coli K88): ≥ 64 µM
MIC [24]: ≥ 64 µM
MIC [25]: ≥ 64 µM
MIC [27]: ≥ 64 µM
MIC [17]: > 64 µM
MIC [28]: > 64 µM
MIC (Escherichia coli UB1005): ≥ 64 µM
MIC [29]: ≥ 64 µM
MIC (Escherichia coli K99): ≥ 64 µM
MIC [10]: > 64 µM
MIC [2]: > 64 µM
MIC [20]: > 64 µM
MIC [30]: ≥ 64 µM
MIC [31]: ≥ 64 µM
MIC [8]: > 64 µM
Compound: C[C@H](NC(=O)[C@H](C)NC(=O)[C@H](Cc1c[nH]c2ccccc12)NC(=O)[C@H](Cc1c[nH]c2ccccc12)NC(=O)[C@H](Cc1c[nH]c2ccccc12)NC(=O)[C@H](CCCN=C(N)N)NC(=O)[C@@H]1CSSC[C@H](N)C(=O)N[C@@H](C)C(=O)N[C@@H](CO)C(=O)N[C@@H](Cc2ccc(O)cc2)C(=O)N[C@@H](Cc2ccccc2)C(=O)N1)C(N)=O [CASYFCRWWWAA]
MIC [26]: ≥ 64 µM
